In the supplement of paper PMC11061612:

What was measured:
Etoposide = compound: COc1cc([C@@H]2c3cc4c(cc3[C@@H](O[C@@H]3O[C@@H]5CO[C@@H](C)O[C@H]5[C@H](O)[C@H]3O)[C@H]3COC(=O)[C@H]23)OCO4)cc(OC)c1O [Etoposide]; conditions: max 10 µM
Method in brief: (§1)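 Viability was measured with CellTiter-Glo 2.0 luminescence after 72 hours of dosing at a final DMSO of typically 0.2%, and scaled between blank-well and DMSO-well means. Beforehand, cancer cell lines sat 24 hours at 37°C and 5% CO2 in 1536-well plates in 7.5 μl DMEM/F12 or RPMI with 10% FBS. A non-linear mixed effects model fitted two-parameter logistic curves to the dose responses. The single-agent IC50 comes from these fits.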

AZD1390 = compound: CC(C)n1c(=O)n(C)c2cnc3cc(F)c(-c4ccc(OCCCN5CCCCC5)nc4)cc3c21 [AZD1390]; conditions: max 0.3 µM
Method in brief: as §1

Olaparib = compound: O=C(c1cc(Cc2n[nH]c(=O)c3ccccc23)ccc1F)N1CCN(C(=O)C2CC2)CC1 [Olaparib]; conditions: max 10 µM
Method in brief: as §1

SRA737 = compound: N#Cc1cnc(Nc2cc(NC[C@H]3CNCCO3)c(C(F)(F)F)cn2)cn1 [SRA737]; conditions: max 10 µM
Method in brief: as §1

Doxorubicin = compound: COc1cccc2c1C(=O)c1c(O)c3c(c(O)c1C2=O)C[C@@](O)(C(=O)CO)C[C@@H]3O[C@H]1C[C@H](N)[C@H](O)[C@H](C)O1 [Doxorubicin]; conditions: max 1 µM
Method in brief: as §1

Trametinib = compound: CC(=O)Nc1cccc(-n2c(=O)n(C3CC3)c(=O)c3c(Nc4ccc(I)cc4F)n(C)c(=O)c(C)c32)c1 [Trametinib]; conditions: max 1 µM
Method in brief: as §1

Dasatinib = compound: CC1=C(C(=CC=C1)Cl)NC(=O)C2=CN=C(S2)NC3=CC(=NC(=N3)C)N4CCN(CC4)CCO [Dasatinib]; conditions: max 2 µM
Method in brief: as §1

AZD5153 = compound: COc1nnc2ccc(N3CCC(c4ccc(OCCN5CCN(C)C(=O)[C@H]5C)cc4)CC3)nn12 [AZD5153]; conditions: max 1 µM
Method in brief: as §1

[1] = compound: O=C(Nc1ccc2[nH]nc(-c3ccncc3)c2c1)[C@@H]1CCN(CC(=O)N2CCN(c3ccc(-c4ncccn4)cc3)CC2)C1; conditions: max 5 µM
Method in brief: as §1

AZD5363 = compound: C1CN(CCC1(C(=O)N[C@@H](CCO)C2=CC=C(C=C2)Cl)N)C3=NC=NC4=C3C=CN4 [AZD5363]; conditions: max 10 µM
Method in brief: as §1

Palbociclib = compound: CC(=O)c1c(C)c2cnc(Nc3ccc(N4CCNCC4)cn3)nc2n(C2CCCC2)c1=O [Palbociclib]; conditions: max 10 µM
Method in brief: as §1

AZD4320 = compound: CN(CC[C@H](CSC1=CC=CC=C1)NC2=C(C=C(C=C2)S(=O)(=O)NC(=O)C3=CC=C(C=C3)N4CCC(CC4)[C@H](C5=CC=CC=C5C6=CC=C(C=C6)Cl)O)S(=O)(=O)C(F)(F)F)CCO [AZD4320]; conditions: max 1 µM
Method in brief: as §1

AZD1775 = compound: C=CCn1c(=O)c2cnc(Nc3ccc(N4CCN(C)CC4)cc3)nc2n1-c1cccc(C(C)(C)O)n1 [AZD1775]; conditions: max 3 µM
Method in brief: as §1

Prexasertib = compound: COc1cccc(OCCCN)c1-c1cc(Nc2cnc(C#N)cn2)n[nH]1 [Prexasertib]; conditions: max 1 µM
Method in brief: as §1

AZD7648 = compound: Cc1cc2ncnn2cc1Nc1ncc2c(n1)n(C1CCOCC1)c(=O)n2C [AZD7648]; conditions: max 10 µM
Method in brief: as §1

Venetoclax = compound: CC1(C)CCC(CN2CCN(c3ccc(C(=O)NS(=O)(=O)c4ccc(NCC5CCOCC5)c([N+](=O)[O-])c4)c(Oc4cnc5[nH]ccc5c4)c3)CC2)=C(c2ccc(Cl)cc2)C1 [Venetoclax]; conditions: max 1 µM
Method in brief: as §1

Paclitaxel = compound: CC(=O)O[C@H]1C(=O)[C@@]2(C)[C@H]([C@H](OC(=O)c3ccccc3)[C@]3(O)C[C@H](OC(=O)[C@H](O)[C@@H](NC(=O)c4ccccc4)c4ccccc4)C(C)=C1C3(C)C)[C@]1(OC(C)=O)CO[C@@H]1C[C@@H]2O [Paclitaxel]; conditions: max 3 µM
Method in brief: as §1

Gemcitabine = compound: Nc1ccn([C@@H]2O[C@H](CO)[C@@H](O)C2(F)F)c(=O)n1 [Gemcitabine]; conditions: max 0.3 µM
Method in brief: as §1

AZD5991 = compound: Cc1c2c(nn1C)CSCc1cc(n(C)n1)CSc1cc(c3ccccc3c1)OCCCc1c(C(=O)O)n(C)c3c-2c(Cl)ccc13 [AZD5991]; conditions: max 1 µM
Method in brief: as §1

Savolitinib = compound: C[C@@H](c1ccc2nccn2c1)n1nnc2ncc(-c3cnn(C)c3)nc21 [Savolitinib]; conditions: max 1 µM
Method in brief: as §1

MK-2206 = compound: NC1(c2ccc(-c3nc4ccn5c(=O)[nH]nc5c4cc3-c3ccccc3)cc2)CCC1 [MK-2206]; conditions: max 10 µM
Method in brief: as §1

AZD6738 = compound: C[C@@H]1COCCN1C2=NC(=NC(=C2)C3(CC3)[S@](=N)(=O)C)C4=C5C=CNC5=NC=C4 [AZD6738]; conditions: max 10 µM
Method in brief: as §1

AZD0156 = compound: CN(C)CCCOc1ccc(-c2ccc3ncc4c(c3c2)n(C2CCOCC2)c(=O)n4C)cn1 [AZD0156]; conditions: max 3 µM
Method in brief: as §1

SG3199 = compound: CC1=CN2[C@@H](C1)C=NC3=CC(=C(C=C3C2=O)OC)OCCCCCOC4=C(C=C5C(=C4)N=C[C@@H]6CC(=CN6C5=O)C)OC [SG3199]; conditions: max 0.001 µM
Method in brief: as §1

Alisertib = compound: COc1cc(Nc2ncc3c(n2)-c2ccc(Cl)cc2C(c2c(F)cccc2OC)=NC3)ccc1C(=O)O [Alisertib]; conditions: max 10 µM
Method in brief: as §1

5-Fluorouracil = compound: O=c1[nH]cc(F)c(=O)[nH]1 [5-Fluorouracil]; conditions: max 20 µM
Method in brief: as §1

Taselisib = compound: Cc1nc(-c2cn3c(n2)-c2ccc(-c4cnn(C(C)(C)C(N)=O)c4)cc2OCC3)n(C(C)C)n1 [Taselisib]; conditions: max 10 µM
Method in brief: as §1

Crizotinib = compound: C[C@@H](Oc1cc(-c2cnn(C3CCNCC3)c2)cnc1N)c1c(Cl)ccc(F)c1Cl [Crizotinib]; conditions: max 10 µM
Method in brief: as §1

Lapatinib = compound: CS(=O)(=O)CCNCc1ccc(-c2ccc3ncnc(Nc4ccc(OCc5cccc(F)c5)c(Cl)c4)c3c2)o1 [Lapatinib]; conditions: max 10 µM
Method in brief: as §1

Carboplatin = compound: C1CC(C1)(C(=O)[O-])C(=O)[O-].N.N.[Pt+2] [Carboplatin]; conditions: max 10 µM
Method in brief: as §1

Selumetinib = compound: Cn1cnc2c(F)c(Nc3ccc(Br)cc3Cl)c(C(=O)NOCCO)cc21 [Selumetinib]; conditions: max 10 µM
Method in brief: as §1

AZD2811 = compound: CCN(CCO)CCCOc1ccc2c(Nc3cc(CC(=O)Nc4cccc(F)c4)[nH]n3)ncnc2c1 [AZD2811]; conditions: max 1 µM
Method in brief: as §1

SN-38 = compound: CCc1c2c(nc3ccc(O)cc13)-c1cc3c(c(=O)n1C2)COC(=O)[C@]3(O)CC [SN-38]; conditions: max 0.3 µM
Method in brief: as §1

AZD8186 = compound: C[C@@H](Nc1cc(F)cc(F)c1)c1cc(C(=O)N(C)C)cc2c(=O)cc(N3CCOCC3)oc12 [AZD8186]; conditions: max 10 µM
Method in brief: as §1

Gefitinib = compound: COc1cc2ncnc(Nc3ccc(F)c(Cl)c3)c2cc1OCCCN1CCOCC1 [Gefitinib]; conditions: max 10 µM
Method in brief: as §1

| Cell Line | IC50, cell viability 72 h (Etoposide) [µM] | IC50, cell viability 72 h (AZD1390) [µM] | IC50, cell viability 72 h (Olaparib) [µM] | IC50, cell viability 72 h (SRA737) [µM] | IC50, cell viability 72 h (Doxorubicin) [µM] | IC50, cell viability 72 h (Trametinib) [µM] | IC50, cell viability 72 h (Dasatinib) [µM] | IC50, cell viability 72 h (AZD5153) [µM] | IC50, cell viability 72 h [1] [µM] | IC50, cell viability 72 h (AZD5363) [µM] | IC50, cell viability 72 h (Palbociclib) [µM] | IC50, cell viability 72 h (AZD4320) [µM] | IC50, cell viability 72 h (AZD1775) [µM] | IC50, cell viability 72 h (Prexasertib) [µM] | IC50, cell viability 72 h (AZD7648) [µM] | IC50, cell viability 72 h (Venetoclax) [µM] | IC50, cell viability 72 h (Paclitaxel) [µM] | IC50, cell viability 72 h (Gemcitabine) [µM] | IC50, cell viability 72 h (AZD5991) [µM] | IC50, cell viability 72 h (Savolitinib) [µM] | IC50, cell viability 72 h (MK-2206) [µM] | IC50, cell viability 72 h (AZD6738) [µM] | IC50, cell viability 72 h (AZD0156) [µM] | IC50, cell viability 72 h (SG3199) [µM] | IC50, cell viability 72 h (Alisertib) [µM] | IC50, cell viability 72 h (5-Fluorouracil) [µM] | IC50, cell viability 72 h (Taselisib) [µM] | IC50, cell viability 72 h (Crizotinib) [µM] | IC50, cell viability 72 h (Lapatinib) [µM] | IC50, cell viability 72 h (Carboplatin) [µM] | IC50, cell viability 72 h (Selumetinib) [µM] | IC50, cell viability 72 h (AZD2811) [µM] | IC50, cell viability 72 h (SN-38) [µM] | IC50, cell viability 72 h (AZD8186) [µM] | IC50, cell viability 72 h (Gefitinib) [µM] |
| --- | --- | --- | --- | --- | --- | --- | --- | --- | --- | --- | --- | --- | --- | --- | --- | --- | --- | --- | --- | --- | --- | --- | --- | --- | --- | --- | --- | --- | --- | --- | --- | --- | --- | --- | --- |
| EW-3 (Ewing's Sarcoma) | 1.1 | > 0.3 | > 10 | > 10 | 0.0867 | > 1 | > 2 | 0.496 | > 5 | > 10 | > 10 | 0.0276 | 2.3 | 0.183 | > 10 | 0.401 | 0.0175 | 0.00811 | 0.47 | > 1 | > 10 | 2.03 | > 3 | > 0.001 | 8.57 | > 20 | > 10 | 9.57 | > 10 | > 10 | > 10 | > 1 | 0.00207 | > 10 | > 10 |
| GI-1 (Glioblastoma) | 4.03 | > 0.3 | > 10 | 3.87 | 0.67 | > 1 | > 2 | 0.303 | > 5 | 7.33 | > 10 | > 1 | 0.755 | 0.0178 | > 10 | > 1 | 0.0102 | 0.0533 | 0.737 | > 1 | > 10 | 2.1 | > 3 | > 0.001 | > 10 | > 20 | 3.04 | 5.43 | > 10 | > 10 | > 10 | > 1 | 0.00955 | 9.59 | > 10 |
| H-EMC-SS (Chondrosarcoma) | > 10 | > 0.3 | > 10 | > 10 | 0.428 | 0.293 | > 2 | > 1 | > 5 | > 10 | > 10 | > 1 | > 3 | > 1 | > 10 | > 1 | > 3 | > 0.3 | > 1 | > 1 | > 10 | > 10 | > 3 | > 0.001 | 8.38 | > 20 | 3.36 | > 10 | > 10 | > 10 | > 10 | > 1 | 0.153 | > 10 | > 10 |
| HSC-2 (Oral Cavity Carcinoma) | 4.42 | > 0.3 | > 10 | > 10 | 0.367 | > 1 | 0.176 | 0.238 | > 5 | > 10 | > 10 | > 1 | 2.13 | 0.124 | > 10 | > 1 | 0.00331 | 0.0182 | 0.439 | > 1 | > 10 | 8.5 | > 3 | > 0.001 | 2.4 | > 20 | 0.171 | > 10 | 4.01 | > 10 | > 10 | > 1 | 0.00535 | > 10 | 3.96 |
| JHH-7 (Hepatocellular Carcinoma) | > 10 | > 0.3 | > 10 | > 10 | > 1 | > 1 | > 2 | > 1 | > 5 | > 10 | > 10 | > 1 | 2.61 | > 1 | > 10 | > 1 | 0.66 | > 0.3 | > 1 | > 1 | > 10 | > 10 | > 3 | > 0.001 | > 10 | > 20 | > 10 | > 10 | > 10 | > 10 | > 10 | > 1 | > 0.3 | > 10 | > 10 |
